Assay results as given in PMC11312998, “Molecular Pro-Apoptotic Activities of Flavanone Derivatives in Cyclodextrin Complexes: New Implications for Anticancer Therapy” (International Journal of Molecular Sciences, 2024).
≈ marks a conversion by molar mass, not a printed value.

Assays:
[1] = Water solubility by UV–Vis spectrophotometry (phase solubility with cyclodextrins); format: physicochemical; conditions: 25 °C, thermodynamic from solid, 298.15 K, without cyclodextrin, read-out: Solubility in H2O
Experimental: Spectrophotometric measurements were performed using a SPECORD 50 single-beam UV–Vis spectrophotometer (Analyst Jena, Thuringia, Germany). The calibration lines of the compounds tested were determined for the concentration range of 3.0 × 10^−6 M to 1 × 10^−4 M (Figure 21). The molar extinction coefficients for 3, 3a, and 5 were determined experimentally in an aqueous ethanol solution; the relevant maximum wavelengths are presented in Table 9. The influence of α-cyclodextrins, β-cyclodextrins and HP-β-cyclodextrins on the solubility of the tested ligands in water was evaluated in three measurement series. Briefly, excess ligand was introduced into closed Eppendorff tubes containing α-CD, β-CD or HP-β-CD solutions, at concentrations ranging from 1 to 90 mM for α-CD and HP-β-CD and from 1 to 15 mM for β-CD. The test tubes were stored for 10 days at a temperature of 298.15 K until equilibrium was achieved. After this time, the solutions were centrifuged using a Microcentrifuge MPW-55 at 13,000 rpm for five minutes. For testing, a clear solution was taken from above the sediment and diluted appropriately so that the spectrum was within the operating range of the spectrophotometer.

RBCs = experiment: Red blood cells lysis assay; format: cell-based, human; conditions: 24 h
Experimental: The experiments on human blood were performed in accordance with Polish national guidelines, and the study protocols were approved by the Bioethics Committee of the Medical University of Lodz, Poland: approval no (RNN/104/20/KE). The blood samples were obtained from healthy donors at the Blood Donation Centre in Lodz. The procedure for […] for erythrotoxicity studies is given in a previous paper. The influence of the synthesized compounds, together with a reference compound on RBC membrane integrity, was performed by lysis assay, described elsewhere. Briefly, 2% RBC suspension in 0.9% NaCl was incubated at 37 °C for 24 h with the tested compounds at concentrations of 100 µmol/L, 50 µmol/L, 25 µmol/L, 10 µmol/L and 1 µmol/L. The samples were centrifuged at 3000 rpm for 10 min, and the absorbance of the supernatant was measured at 550 nm. […] A sample containing saline solution represented the spontaneous hemolysis of RBCs (control). The experiments were conducted using at least three different biological materials (n = 3). […] Additionally, erythrocyte morphology was evaluated using a phase contrast Opta-Tech inverted microscope at 400× magnification.

[2] = Isothermal titration calorimetry (ITC) of inclusion complex formation; format: physicochemical; conditions: DMSO, 25 °C
Experimental: Measurements were carried out using a MicroCal VP-ITC100 microcalorimeter equipped with a 1400 μL measurement cell. All titrations were carried out under isothermal conditions at 25 degrees C in DMSO solution, which was used as a solvent. The mixing speed during the measurements was 351 rpm. The 0.2 mM solution of the ligand (3, 3a and 5) located in the measurement cell was titrated with the cyclodextrin solution located in the syringe. Each measurement consisted of 50 injections of cyclodextrin with a volume of 5 uL and a concentration of 5 mM. The interval between individual injections was 300 s. The effect of direct interaction of the ligand with CD was calculated by subtracting the thermal effects of diluting 5 mM cyclodextrin in a pure solvent. The dilution effect of the 0.2 mM ligand solution was negligible. The results obtained were processed in the MicroCall Origin 7 software. Using a single active site model (ITC Tutorial Guide), the stability constant K of the resulting complex, its stoichiometry n and thermodynamic parameters that describe the ongoing process were determined, viz., enthalpy (ΔH), Gibbs free energy (ΔG) and entropy (ΔS).

[3] = tested on: intrinsic coagulation pathway; experiment: Activated partial thromboplastin time (APTT); format: biochemical, human; conditions: 1–100 µmol/L; values did not exceed the reference range
Experimental: Basic coagulation parameters were determined using Bio-Ksel reagents (Grudziądz, Poland): APTT reagent, calcium chloride, Bio-Ksel PT plus reagent (tromboplastin and solvent) and thrombin (3.0 UNIH/mL) for TT experiments. The methods were calibrated and the coefficient of variation (PT, APTT, TT experiments) was calculated using a calibrator (Bio-Ksel, Grudziadz, Poland), normal plasma (Bio-Ksel, Grudziądz, Poland) and water for injection (Polpharma, Gdańsk, Poland).
The experiments were conducted in multiplicates, and their results are presented as mean ± standard deviation (SD). Control samples consisting of distilled water and methanol were tested. All methods were validated using Bio-Ksel normal plasma, which was dissolved in water for injection (Polpharma, Gdańsk, Poland). The reference values for each test are as follows: PT: 9.7–13.8 s; INR: 0.9–1.2; APTT: 28.2–42.3 s; TT: 11.0–16.5 s for 3.0 UNIH/mL of thrombin.

MCF-7 = experiment: Superoxide anion generation, DHE probe; format: cell-based, human; conditions: IC50 concentration, 24 h
Experimental: (§1) The level of superoxide anion (O2^•−) was determined by microplate spectrofluorimetry with dihydroethidium (hydroethidine, DHE) (Life Technologies, Carlsbad, CA, USA), which is the most commonly used fluorogenic probe for monitoring the intracellular production of superoxide anion O2^•− [41]. […] Thanks to this shift, DHE can be used as a sensitive probe for cellular ROS. The reaction between superoxide and DHE generates a highly specific red fluorescent product, 2-hydroxyethidium (2-OH-E^+).
(§2) The cells were seeded in black 96-well fluorometric microplates at a density of 10 × 10^3 cells per well. […] After incubation, the medium was removed, the cell monolayer in the wells was washed twice with HBSS (140 mM NaCl, 5 mM KCl, 0.8 mM MgCl2, 1.8 mM CaCl2, 1 mM Na2HPO4, 10 mM HEPES and 1% glucose) and 50 μL of DHE solution in HBSS was added to each well (final probe concentration 5 μmol/L). Cells were incubated with the probe for 30 min in the dark in an incubator (37 °C), and then fluorescence was measured. The measurement was performed at the following excitation and fluorescence emission wavelengths: λex = 498 nm/λem = 582 nm. Fluorescence measurements were made on a Perkin-Elmer LS-5B spectrofluorometer (MA, USA). Fluorescence intensity values for control cells were arbitrarily set as 100%. The results are presented as percentages of control cell values, calculated relative to the fluorescence intensity of the controls (100%): sample fluorescence was calculated as Δf in relation to the controls.

Ishikawa = experiment: Superoxide anion generation, DHE probe; format: cell-based, human; conditions: IC50 concentration, 24 h
Experimental: as §1, §2

Hec-1-A = experiment: Superoxide anion generation, DHE probe; format: cell-based, human; conditions: IC50 concentration, 24 h
Experimental: as §1, §2

[4] = concentration range of 1–25 µmol/L
[5] = concentrations of 50 µmol/L and 100 µmol/L

solubility at 10 days [1]	K (formation constant) ([2]; HP-β-cyclodextrin)	n (stoichiometry) ([2]; HP-β-cyclodextrin)	ΔG ([2]; HP-β-cyclodextrin)	ΔH ([2]; HP-β-cyclodextrin)	ΔS ([2]; HP-β-cyclodextrin)	K (formation constant) ([2]; α-cyclodextrin)	n (stoichiometry) ([2]; α-cyclodextrin)	ΔG ([2]; α-cyclodextrin)	ΔH ([2]; α-cyclodextrin)	ΔS ([2]; α-cyclodextrin)	K (formation constant) ([2]; β-cyclodextrin)	n (stoichiometry) ([2]; β-cyclodextrin)	ΔH ([2]; β-cyclodextrin)	ΔS ([2]; β-cyclodextrin)	Structure (SMILES)	impact on % hemolysis (in words) (RBCs; [4])	impact on % hemolysis (in words) (RBCs; [5])	APTT time (in words) [3]	greater superoxide anion level relative to control (DHE probe) (MCF-7)	greater superoxide anion level relative to control (DHE probe) (Ishikawa)	further results
1.5 µM (≈ 0.469 µg/mL)	5.12 × 10^3 ± 410	0.93 ± 0.10	−21,172.4 J mol^−1	-0.119 ± 0.0151 kcal/mol	69.3 J mol^−1K^−1	1.39 × 10^3 ± 120	0.83 ± 0.17	−17,940.2 J mol^−1	-0.049 ± 0.00741 kcal/mol	59.5 J mol^−1K^−1	2.32 × 10^3 ± 220	0.93 ± 0.11	-0.0411 ± 0.012 kcal/mol	62.5 J mol^−1K^−1	O=C1/C(=C/c2ccccc2)C(c2ccccc2)Oc2ccccc21 (stereo not drawn) [Compound 5]	did not show a statistically significant impact	statistically significant increase in % hemolysis	mild, statistically significant prolongation of APTT time	~30%	~30%	–
1.29 µM (≈ 0.442 µg/mL)	6.88 × 10^3 ± 430	1.03 ± 0.10	−21,902.2 J mol^−1	-0.235 ± 0.0191 kcal/mol	70.2 J mol^−1K^−1	2.30 × 10^3 ± 180	0.90 ± 0.13	−19,188.6 J mol^−1	-0.092 ± 0.011 kcal/mol	63.1 J mol^−1K^−1	3.68 × 10^3 ± 230	0.99 ± 0.11	-0.2476 ± 0.021 kcal/mol	64.8 J mol^−1K^−1	COc1cccc(/C=C2/C(=O)c3ccccc3OC2c2ccccc2)c1 (stereo not drawn) [Compound 3]	did not show a statistically significant impact	statistically significant increase in % hemolysis	mild, statistically significant prolongation of APTT time	approximately 20%	approximately 20%	ΔG ([2]; β-cyclodextrin): −20,353.7 J mol^−1; rise of superoxide anion level compared to the control (DHE probe) (Hec-1-A): approximately 20%
